Results from US20240092829A1, “PEPTIDE HAVING PROTECTIVE ACTIVITY AGAINST CELL DAMAGE CAUSED BY PARTICULATE MATTER, AND USES FOR SAME” (CAREGEN CO., LTD., priority 2020, published 2024).
Peptide text beside a SMILES is read from it.

Experiments:
cytochrome P450 [1] = experiment: Cytochrome P450 activity in HaCaT cells (P450-Glo Assay kit); assay type: cell-based; details: HaCaT human keratinocytes; peptide pretreatment 1 hour at 20, 100, 200 μM; then 50 μg/cm^2 urban particulate matter 24 hours; FIG. 3
From the text: When polyaromatic hydrocarbons (PAHs) present in particulate matter penetrate into cells and bind to AHR, it promotes nuclear translocation of AHR. It is known that the AHR translocated into the nucleus forms a complex AHR/ARNT with an AHR nuclear translocator (ARNT), and this complex act as a transcription factor to promote the expression of cytochrome P450 (CYPs). In order to confirm the effect of the synthesized peptide in inhibiting cell damage caused by particulate matter, an experiment was performed for confirming whether the peptide inhibits the activity of cytochrome P450 after the cells were treated with particulate matter.
(§1) First, HaCaT cells, which are human keratinocytes, were seeded into a 96-well plate at a density of 1×10^4 cells/well. After overnight incubation, the media were replaced with serum-free media. The keratinocytes, HaCaT were pretreated with the synthesized peptides for 1 hour at each concentration (20 μM, 100 μM, and 200 μM). Then, the cells were treated with 50 μg/cm^2 of urban particulate matter (Sigma, NIST1648A) for 24 hours. After the keratinocytes were collected, the activity of cytochrome P450 was measured using P450-Glo™ Assay kit (Promega).

cytochrome P450 [2] = experiment: Cytochrome P450 activity in A549 cells (P450-Glo Assay kit); assay type: cell-based; details: A549 human alveolar epithelial cells; peptide pretreatment 1 hour at 20, 100, 200 μM; then 50 μg/cm^2 urban particulate matter 24 hours; FIG. 4
Protocol: In addition, in order to confirm whether the peptide of the present invention can suppress respiratory damage caused by particulate matter, an experiment for measuring the activity of cytochrome P450 was also performed on A549 cells, which are human alveolar epithelial cells.
as §1, with “human alveolar epithelial” for “HaCaT”, “A549 cells” for “which are human keratinocytes,”, “1.2×10^4” for “1×10^4”, “alveolar epithelial cells, A549 cells” for “keratinocytes, HaCaT”, “treated cells” for “keratinocytes”

CSCC[C@H](NC(=O)[C@H](Cc1ccc(O)cc1)NC(=O)[C@@H](N)Cc1c[nH]c2ccccc12)C(=O)O [SEQ ID NO: 1, Trp Tyr Met] (H-Trp-Tyr-Met-OH; N-terminus and C-terminus assumed)
activity of cytochrome P450 increased by the treatment of particulate matter (cytochrome P450 [1]): reduced
activity of cytochrome P450 increased by the treatment of particulate matter (cytochrome P450 [2]): reduced
